Structures are written as SMILES. “And” between values parts separate entries of the source, which are not always exact repeats. Equal entries are not always repeated.

Consider two molecules from PubChem BioAssay AID1845209 (Molecular Pharmacology Branch, DTP, NCI, 2023).

The subject of this assay is NCI-H211 tumor spheroids, viability percent test/control. The assay can be described thus: Anticancer human tumor NCI-H211 cell line growth inhibition.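 As to all read-outs here: spheroids exposed to agents for seven days before readout.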 The conditions noted are these: spheroids with HUVEC and MSC; for viability, T/C: stronger effect = lower value. Put shortly: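 Complex spheroids of malignant cells with endothelial cells and mesenchymal stem cells; agents alone or combined, from near clinical Cmax (or 10 microM if unknown) down in half-log steps, 0.25% DMSO final.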

For `CNCc1ccc(-c2cc(-c3nc(-c4ccc(S(=O)(=O)C(C)C)cc4)cnc3N)on2)cc1` + COc1cc2c(cc1O)CCNC21CSC2c3c(OC(C)=O)c(C)c4c(c3C(COC1=O)N1C(O)C3Cc5cc(C)c(OC)c(O)c5C(C21)N3C)OCO4, the half-maximal inhibitory concentration (IC50) (as a rule, the concentration at which inhibition is half-maximal) (curve of first compound, second compound 30 pM) was found to be 22.8 nM; the concentration for half-maximal inhibition (IC50) (curve of first compound, second compound 94.9 pM) is less than 9.49 nM; the 50% inhibitory concentration (IC50) (curve of first compound, second compound 0.0003 µM) is less than 9.49 nM; the IC50 (curve of first compound, second compound 0.000949 µM) is less than 9.49 nM; the IC50 (curve of first compound, second compound 0.003 µM) was less than 9.49 nM. Further, the viability, T/C – broadly, the ratio of treated to control – (second compound 30 pM, first compound 0.00949 µM) is 93.2%; the viability, T/C (second compound 30 pM, first compound 0.03 µM) is 36.2%; the viability, T/C (second compound 30 pM, first compound 0.0949 µM) was 2.15%; the viability, T/C (second compound 30 pM, first compound 0.3 µM) was 0.93%; the viability, T/C (second compound 30 pM, first compound 0.949 µM) was 0.77%; the viability, T/C (second compound 30 pM, first compound 3 µM) was 0.11%. In addition, the viability, T/C reads like this: (second compound 94.9 pM, first compound 0.00949 µM) 8.16%; (second compound 94.9 pM, first compound 0.03 µM) 1.5%; (second compound 94.9 pM, first compound 0.0949 µM) 1.02%; (second compound 94.9 pM, first compound 0.3 µM) 0.78%; (second compound 94.9 pM, first compound 0.949 µM) 0.59%; (second compound 94.9 pM, first compound 3 µM) 0.11%. In addition, the viability, T/C (second compound 0.0003 µM, first compound 0.00949 µM) was 0.82%; the viability, T/C (second compound 0.0003 µM, first compound 0.03 µM) is 0.84%; the viability, T/C (second compound 0.0003 µM, first compound 0.0949 µM) is 0.73%; the viability, T/C (second compound 0.0003 µM, first compound 0.3 µM) was 0.7%; the viability, T/C (second compound 0.0003 µM, first compound 0.949 µM) is 0.5%; the viability, T/C (second compound 0.0003 µM, first compound 3 µM) is 0.1%. Besides, the viability, T/C reads like this: (second compound 0.000949 µM, first compound 0.00949 µM) 1.01%; (second compound 0.000949 µM, first compound 0.03 µM) 0.87%; (second compound 0.000949 µM, first compound 0.0949 µM) 0.88%; (second compound 0.000949 µM, first compound 0.3 µM) 0.66%; (second compound 0.000949 µM, first compound 0.949 µM) 0.34%; (second compound 0.000949 µM, first compound 3 µM) 0.11%. Besides, the viability, T/C runs as follows: (second compound 0.003 µM, first compound 0.00949 µM) 0.11%; (second compound 0.003 µM, first compound 0.03 µM) 0.11%; (second compound 0.003 µM, first compound 0.0949 µM) 0.09%; (second compound 0.003 µM, first compound 0.3 µM) 0.1%; (second compound 0.003 µM, first compound 0.949 µM) 0.1%; (second compound 0.003 µM, first compound 3 µM) 0.15%.
For `COc1cc2c(cc1O)CCNC21CSC2c3c(OC(C)=O)c(C)c4c(c3C(COC1=O)N1C(O)C3Cc5cc(C)c(OC)c(O)c5C(C21)N3C)OCO4` (stereo not given), the viability, T/C is, setting by setting: (compound 94.9 pM) 21.3% [middle of 10 runs]; (compound 0.0003 µM) 0.79% [middle of 8 runs]; (compound 0.000949 µM) 0.7% [middle of 9 runs]; (compound 0.003 µM) 0.13% [middle of 6 runs]. The IC50 (compound alone, run of 12/16/2019) is 0.0665 nM and 0.0583 nM and 0.0631 nM.
